Assay results reported in US20120190752A1, “EXO-S-MECAMYLAMINE METHOD, USE, AND COMPOUND FOR TREATMENT” (Targacept Inc., priority 2009, published 2012).

Tested on: subjects with major depressive disorder (MDD) who were inadequate responders to citalopram
Assay: SIS (Sheehan Irritability Scale), total and individual items, Phase 2b add-on trial
Format: in vivo, human
Set-up: SIS Adj. Mean change / SIS total score change Adjusted Mean / SIS Anger With Others change Adjusted Mean / SIS Anger With Self change Adjusted Mean / SIS Edginess change Adjusted Mean / SIS Irritability change Adjusted Mean / SIS Moodiness change Adjusted Mean / SIS Temper change Adjusted Mean: scale not given here
Description: In more detail, a multi-center double-blind, randomized, placebo-controlled, parallel group, flexible dose titration study of TC-5214 as adjunctive therapy in subjects with major depressive disorder (MDD) who were inadequate responders to citalopram was conducted in centers in the US and India. The study consisted of a screening period, baseline/washout period, open-label phase, double-blind phase, and a follow-up visit. Subject participation in the study could continue for up to 16 weeks of treatment. Following a washout period of up to 28 days for other antidepressants, subjects with MDD and a MADRS total score >/=28 and a Clinical Global Impression-Severity (CGI-S) score >/=4 were enrolled on Day 1 into an open-label citalopram-only phase of the study. This phase lasted 8 weeks, with citalopram (CIT) dose increased from a once-daily dose of 20 mg (Day 1 through Week 4) to 40 mg (Week 4 through Week 8). A total of 579 subjects entered the open-label citalopram phase. At Week 8, subjects who tolerated 40 mg CIT, but whose MADRS score was reduced <50% from baseline and no lower than 17, and CGI-S≧4, were considered inadequate responders. These subjects (n=270) were randomized in a double-blind fashion to receive either placebo or TC-5214-23 as add-on therapy to continued CIT. The double-blind phase of the study also lasted 8 weeks (Week 8 to Week 16). Study drug, TC-5214-23 or placebo, was started at 2 mg daily (1 mg twice per day [BID] dosing), added on to continuing CIT (40 mg PO qd). After 2 weeks of treatment, the dose of TC-5214 could be increased to 4 mg (2 mg BID) or continued unchanged, with up-titration based upon good tolerability and inadequate therapeutic response. After a further 2 weeks, the dose of TC-5214 could be increased again to 8 mg (4 mg BID) if judged appropriate by the investigator, based upon good tolerability and inadequate therapeutic response. At any time during the double-blind phase of the study, placebo or TC-5214-23 could be reduced to the previous dose level following the emergence of unacceptable adverse events (AEs). […] At this follow-up, any signs or symptoms of relapse were evaluated. If a subject was prematurely discontinued from the study between Week 8 and Week 16 for any reason, the investigator was to make every effort to perform all evaluations as per protocol, assuming the subject had reached the end of the double-blind add-on treatment phase. These evaluations were to be made as soon as possible and within 2 weeks of discontinuation. […] There was no meaningful difference in results as a function of age, gender, site, or smoking status. [table] With regard to efficacy endpoints, the following tables present efficacy used in the ITT (Intent-to-Treat) and PP (Per Protocol) populations unless otherwise specific. The primary inference was based upon Week 16 visit using the ITT population. Change from baseline was obtained by subtracting the baseline values from the individual on-treatment values. Change from Week 16 was obtained by subtracting the Week 16 values from the individual follow-up visit (Week 18/19) values. If either the baseline or Week 16 or on-treatment or follow-up value was missing, the change from baseline or Week 16 value was also set to missing. To account for missing data, the last observation carry forward (LOCF) method was used for the ITT and PP populations. Thus, the last available on-therapy observation for a subject, including the observation at premature discontinuation, was used to estimate subsequent missing data points. For efficacy, baseline data were collected at Week 8 in the double-blind augmentation phase electronic case report form pages. For SIS, the endpoint was the change from Week 8 (double-blind baseline) to Week 16 of the SIS. Changes were analyzed using ANCOVA. Each SIS item score was also analyzed using ANCOVA. […]

[1] = ITT population, Double Blind Week 16 LOCF, change from DB baseline
[2] = ITT population, Double Blind Week 18 LOCF (Follow-up), change from Week 16
[3] = PP population, Double Blind Week 16 LOCF, change from DB baseline
[4] = PP population, Double Blind Week 18 LOCF (Follow-up), change from Week 16

SMILES: CN[C@@]1(C)[C@@H]2CC[C@@H](C2)C1(C)C [TC5214]
- SIS Anger With Others change Adjusted Mean [1]: −2.56
- SIS Anger With Others change Mean Difference between TC-5214 and Placebo [1]: 1.22
- SIS Anger With Self change Adjusted Mean [1]: −2.29
- SIS Anger With Self change Mean Difference between TC-5214 and Placebo [1]: 1.01
- SIS Edginess change Adjusted Mean [1]: −2.55
- SIS Edginess change Mean Difference between TC-5214 and Placebo [1]: 1.14
- SIS Frustration change Adjusted Mean [1]: −2.74
- SIS Frustration change Mean Difference between TC-5214 and Placebo [1]: 1.42
- SIS Irritability change Adjusted Mean [1]: −2.74
- SIS Irritability change Mean Difference between TC-5214 and Placebo [1]: 1.38
- SIS Moodiness change Adjusted Mean [1]: −3.00
- SIS Moodiness change Mean Difference between TC-5214 and Placebo [1]: 1.51
- SIS Temper change Adjusted Mean [1]: −2.37
- SIS Temper change Mean Difference between TC-5214 and Placebo [1]: 1.19
- SIS Anger With Others change Adjusted Mean [2]: −0.07
- SIS Anger With Others change Mean Difference between TC-5214 and Placebo [2]: 0.01
- SIS Anger With Self change Adjusted Mean [2]: −0.07
- SIS Anger With Self change Mean Difference between TC-5214 and Placebo [2]: 0.09
- SIS Edginess change Adjusted Mean [2]: −0.24
- SIS Edginess change Mean Difference between TC-5214 and Placebo [2]: 0.01
- SIS Frustration change Adjusted Mean [2]: −0.09
- SIS Frustration change Mean Difference between TC-5214 and Placebo [2]: −0.06
- SIS Irritability change Adjusted Mean [2]: −0.14
- SIS Irritability change Mean Difference between TC-5214 and Placebo [2]: −0.08
- SIS Moodiness change Adjusted Mean [2]: −0.13
- SIS Moodiness change Mean Difference between TC-5214 and Placebo [2]: −0.05
- SIS Temper change Adjusted Mean [2]: −0.11
- SIS Temper change Mean Difference between TC-5214 and Placebo [2]: −0.07
- SIS Anger With Others change Adjusted Mean [3]: −2.77
- SIS Anger With Others change Mean Difference between TC-5214 and Placebo [3]: 1.42
- SIS Anger With Self change Adjusted Mean [3]: −2.54
- SIS Anger With Self change Mean Difference between TC-5214 and Placebo [3]: 1.13
- SIS Edginess change Adjusted Mean [3]: −2.81
- SIS Edginess change Mean Difference between TC-5214 and Placebo [3]: 1.36
- SIS Frustration change Adjusted Mean [3]: −3.00
- SIS Frustration change Mean Difference between TC-5214 and Placebo [3]: 1.59
- SIS Irritability change Adjusted Mean [3]: −3.00
- SIS Irritability change Mean Difference between TC-5214 and Placebo [3]: 1.58
- SIS Moodiness change Adjusted Mean [3]: −3.34
- SIS Moodiness change Mean Difference between TC-5214 and Placebo [3]: 1.71
- SIS Temper change Adjusted Mean [3]: −2.55
- SIS Temper change Mean Difference between TC-5214 and Placebo [3]: 1.36
- SIS Anger With Others change Adjusted Mean [4]: −0.10
- SIS Anger With Others change Mean Difference between TC-5214 and Placebo [4]: 0.03
- SIS Anger With Self change Adjusted Mean [4]: −0.09
- SIS Anger With Self change Mean Difference between TC-5214 and Placebo [4]: 0.11
- SIS Edginess change Adjusted Mean [4]: −0.27
- SIS Edginess change Mean Difference between TC-5214 and Placebo [4]: 0.05
- SIS Frustration change Adjusted Mean [4]: −0.09
- SIS Frustration change Mean Difference between TC-5214 and Placebo [4]: −0.04
- SIS Irritability change Adjusted Mean [4]: −0.14
- SIS Irritability change Mean Difference between TC-5214 and Placebo [4]: −0.07
- SIS Moodiness change Adjusted Mean [4]: −0.13
- SIS Moodiness change Mean Difference between TC-5214 and Placebo [4]: −0.01
- SIS Temper change Adjusted Mean [4]: −0.14
- SIS Temper change Mean Difference between TC-5214 and Placebo [4]: −0.00
